Reference: patent publication US20230365585A1, “BENZODIAZEPINE DERIVATIVES USEFUL IN TREATING A RESPIRATORY SYNCYTIAL VIRUS INFECTION” (priority 2020, published 2023)
pEC50: −log10 of the molar value.

Tests used:
Hep-G2 cells = test: Cell cytotoxicity CC50; type: cell-based; conditions: mean of at least two experiments
Excerpt: (§1) Plates were scanned and analysed using the Immunospot S6 Macro analyser, which is equipped with BioSpot analysis software for counting immunostained plaques (virospots). Plaque counts were used to calculate % infection relative to the mean of the plaque count in the virus control wells for RSV. […] Plaque EC50 and cell toxicity CC50 values are a mean of at least two experiments and figures are rounded to whole units.

RSV A2 = test: RSV plaque reduction assay; type: cell-based, RSV (RSV A2 ECACC, 0709161v); conditions: Hep-G2 cells, RSV A2, 2 days, mean of at least two experiments
Experimental: Compounds were subjected to RSV plaque reduction assays according to the following protocol.
Hep-G2 cells (ECACC, 85011430) were passaged in flasks and seeded in 24-well plates in DMEM containing antibiotics and supplemented with 10% FBS. During inoculation and subsequent incubation, cells were cultured in DMEM containing 2% FBS. 100 plaque forming unit/well of RSV (RSV A2 ECACC, 0709161v) was mixed with eight serial dilutions of compound. Subsequently, 100 µL of the virus/compound mixtures was added to confluent Hep-G2 cell monolayers. The cells and virus/compound mixtures were incubated at 37° C. in a humidified 5% CO2 incubator for 2 h prior to removal of the inoculum and addition of 1 mL of overlay (DMEM containing 2% FBS and 0.8% CMC) containing compound dilutions. The cells and were incubated at 37° C. in a humidified 5% CO2 incubator for 2 days.
Cells were washed with PBS before adding 75%/25% v/v EtOH/MeOH, for 3 min. Fix ative was removed and plates were washed with PBS. A pre-titrated amount of the primary antibody was added in 200 µL PBS/2% milk powder, and plates incubated for 90 min at 37° C. The plates were washed 3 times with PBS/0.05% Tween20 before addition of rabbit anti-goat horse radish peroxidase in 200 µL PBS/2% milk powder, and incubated for 1 h at 37° C. Following three wash steps with PBS/0.05% Tween20, 200 µL ready-to-use TrueBlue was added and plates were incubated at rt for 10-15 min before washing with water. After removal of water, plates were air-dried in the dark.
as §1

Cell cytotoxicity CC50 = type: cell-based; conditions: human; mean of at least two experiments
Excerpt: as §1

[1] = human respiratory syncytial virus, HepG2, 48 h

2-(2,4-Difluorophenyl)-5-methyl-N-[(3S)-2-oxo-5-phenyl-1,3-dihydro-1,4-benzodiazepin-3-yl]-5,6,7,8-tetrahydropyrazolo[5,1-b][1,3]oxazepine-3-carboxamide [Example 16]
CC50 (Hep-G2 cells): > 25000 nM | pEC50 (RSV A2): 7.19

CCNc1ccc(-c2nn3c(c2C(=O)N[C@H]2N=C(c4ccccc4)c4ccccc4NC2=O)OC(C)CCC3)c(F)n1 (single isomer, unassigned) [Example 10-2, (5S*)-2-[6-(ethylamino)-2-fluoropyridin-3-yl]-5-methyl-N-[(3S)-2-oxo-5-phenyl-1,3-dihydro-1,4-benzodiazepin-3-yl]-5,6,7,8-tetrahydropyrazolo[5,1-b][1,3]oxazepine-3-carboxamide]
CC50 (Hep-G2 cells): > 25000 nM | pEC50 (RSV A2): 7.62

CC(C)Nc1ccc(-c2nn3c(c2C(=O)N[C@H]2N=C(c4ccccc4)c4ccccc4NC2=O)OC(C)CCC3)c(F)n1 (single isomer, unassigned) [Example 12-2, (5S*)-2-[2-fluoro-6-(propan-2-ylamino)pyridin-3-yl]-5-methyl-N-[(3S)-2-oxo-5-phenyl-1,3-dihydro-1,4-benzodiazepin-3-yl]-5,6,7,8-tetrahydropyrazolo[5,1-b][1,3]oxazepine-3-carboxamide]
CC50 (Hep-G2 cells): > 25000 nM | pEC50 (RSV A2): 7.48

CC(C)Nc1ccc(-c2nn3c(c2C(=O)N[C@H]2N=C(c4ccccc4)c4cccc(F)c4NC2=O)OC(C)CCC3)c(F)n1 (single isomer, unassigned) [Example 13-2, (5S*)-N-[(3S)-9-fluoro-2-oxo-5-phenyl-1,3-dihydro-1,4-benzodiazepin-3-yl]-2-[2-fluoro-6-(propan-2-ylamino)pyridin-3-yl]-5-methyl-5,6,7,8-tetrahydropyrazolo[5,1-b][1,3]oxazepine-3-carboxamide]
CC50 (Hep-G2 cells): > 25000 nM | pEC50 (RSV A2): 7.64

CC1CCCOc2c(C(=O)NC3N=C(c4ccccc4)c4ccccc4NC3=O)c(-c3ccccc3F)nn21 (single isomer, unassigned) [Example 14-2, (8S*)-2-(2-Fluorophenyl)-8-methyl-N-(2-oxo-5-phenyl-1,3-dihydro-1,4-benzodiazepin-3-yl)-5,6,7,8-tetrahydropyrazolo[5,1-b][1,3]oxazepine-3-carboxamide]
CC50 (Hep-G2 cells): > 25000 nM | pEC50 (RSV A2): 7.22

CC1CCCOc2c(C(=O)NC3N=C(c4ccccc4)c4cccc(F)c4NC3=O)c(-c3ccccc3F)nn21 (single isomer, unassigned) [Example 15-2, (8S*)-N-(9-fluoro-2-oxo-5-phenyl-1,3-dihydro-1,4-benzodiazepin-3-yl)-2-(2-fluorophenyl)-8-methyl-5,6,7,8-tetrahydropyrazolo[5,1-b][1,3]oxazepine-3-carboxamide]
CC50 (Hep-G2 cells): > 25000 nM | pEC50 (RSV A2): 7.43

CC1CCCn2nc(-c3ccc(F)cc3F)c(C(=O)N[C@H]3N=C(c4ccccc4)c4ccccc4NC3=O)c2O1 (single isomer, unassigned) [Example 16-2, (5S*)-2-(2,4-difluorophenyl)-5-methyl-N-[(3S)-2-oxo-5-phenyl-1,3-dihydro-1,4-benzodiazepin-3-yl]-5,6,7,8-tetrahydropyrazolo[5,1-b][1,3]oxazepine-3-carboxamide]
CC50 (Hep-G2 cells): > 25000 nM | pEC50 (RSV A2): 7.41

CC1CCCn2nc(-c3ccc(F)cc3F)c(C(=O)N[C@H]3N=C(c4ccccc4)c4cccc(F)c4NC3=O)c2O1 (single isomer, unassigned) [Example 17-2, (5S*)-2-(2,4-difluorophenyl)-N-[(3S)-9-fluoro-2-oxo-5-phenyl-1,3-dihydro-1,4-benzodiazepin-3-yl]-5-methyl-5,6,7,8-tetrahydropyrazolo[5,1-b][1,3]oxazepine-3-carboxamide]
CC50 (Hep-G2 cells): > 25000 nM | pEC50 (RSV A2): 7.70

CCC1CCCn2nc(-c3ccccc3F)c(C(=O)N[C@H]3N=C(c4ccccc4)c4ccccc4NC3=O)c2O1 (single isomer, unassigned) [Example 24-2, (5S*)-5-ethyl-2-(2-fluorophenyl)-N-[(3S)-2-oxo-5-phenyl-2,3-dihydro-1H-1,4-benzodiazepin-3-yl]-5H,6H,7H,8H-pyrazolo[3,2-b][1,3]oxazepine-3-carboxamide]
CC50 (Hep-G2 cells): > 25000 nM | pEC50 (RSV A2): 7.05

CC1CCCn2nc(-c3ccccc3F)c(C(=O)N[C@H]3N=C(c4ccccc4)c4ccccc4NC3=O)c2O1 (stereo partly drawn) [Example 18, 2-(2-Fluorophenyl)-5-methyl-N-[(3S)-2-oxo-5-phenyl-1,3-dihydro-1,4-benzodiazepin-3-yl]-5,6,7,8-tetrahydropyrazolo[5,1-b][1,3]oxazepine-3-carboxamide]
CC50 (Cell cytotoxicity CC50): > 25000 nM | pEC50 (RSV A2; [1]): 7.43

O=C(N[C@H]1N=C(c2ccccc2)c2cccc(F)c2NC1=O)c1c(-c2ccccc2F)nn2c1SCCCC2 [Example 20, N-[(3S)-9-fluoro-2-oxo-5-phenyl-2,3-dihydro-1H-1,4-benzodiazepin-3-yl]-2-(2-fluorophenyl)-5H,6H,7H,8H-pyrazolo[3,2-b][1,3]thiazepine-3-carboxamide]
CC50 (Cell cytotoxicity CC50): > 25000 nM | pEC50 (RSV A2; [1]): 7.47

O=C(N[C@H]1N=C(c2ccccc2)c2cccc(F)c2NC1=O)c1c(-c2ccccc2F)nn2c1S(=O)(=O)CCCC2 [Example 21, N-[(3S)-9-fluoro-2-oxo-5-phenyl-2,3-dihydro-1H-1,4-benzodiazepin-3-yl]-2-(2-fluorophenyl)-4,4-dioxo-5H,6H,7H,8H-4λ^6-pyrazolo[3,2-b][1,3]thiazepine-3-carboxamide]
CC50 (Cell cytotoxicity CC50): > 25000 nM | pEC50 (RSV A2; [1]): 6.42

CCc1ccc(-c2nn3c(c2C(=O)N[C@H]2N=C(c4ccccc4)c4cccc(F)c4NC2=O)OCC(F)(F)CC3)cn1 [Example 22, 2-(6-Ethylpyridin-3-yl)-6,6-difluoro-N-[(3S)-9-fluoro-2-oxo-5-phenyl-2,3-dihydro-1H-1,4-benzodiazepin-3-yl]-5H,6H,7H,8H-pyrazolo[3,2-b][1,3]oxazepine-3-carboxamide]
CC50 (Cell cytotoxicity CC50): > 25000 nM | pEC50 (RSV A2; [1]): 6.99

CC(C)Nc1ccc(-c2nn3c(c2C(=O)N[C@H]2N=C(c4ccccc4)c4cccc(F)c4NC2=O)OCC(F)(F)CC3)cn1 [Example 23, 6,6-Difluoro-N-[(3S)-9-fluoro-2-oxo-5-phenyl-2,3-dihydro-1H-1,4-benzodiazepin-3-yl]-2-{6-[(propan-2-yl)amino]pyridin-3-yl}-5H,6H,7H,8H-pyrazolo[3,2-b][1,3]oxazepine-3-carboxamide]
CC50 (Cell cytotoxicity CC50): > 25000 nM | pEC50 (RSV A2; [1]): 7.28

CCC1CCCn2nc(-c3ccccc3F)c(C(=O)N[C@H]3N=C(c4ccccc4)c4ccccc4NC3=O)c2O1 (stereo partly drawn) [Example 24, 5-Ethyl-2-(2-fluorophenyl)-N-[(3S)-2-oxo-5-phenyl-1,3-dihydro-1,4-benzodiazepin-3-yl]-5,6,7,8-tetrahydropyrazolo[5,1-b][1,3]oxazepine-3-carboxamide]
CC50 (Cell cytotoxicity CC50): > 25000 nM | pEC50 (RSV A2; [1]): 7.00

CCC1CCCn2nc(-c3ccccc3F)c(C(=O)N[C@H]3N=C(c4ccccc4)c4cccc(F)c4NC3=O)c2O1 (some centres unmarked) [Example 25, 5-Ethyl-N-[(3 S)-9-fluoro-2-oxo-5-phenyl-1,3-dihydro-1,4-benzodiazepin-3-yl]-2-(2-fluorophenyl)-5,6,7,8-tetrahydropyrazolo[5,1-b][1,3]oxazepine-3-carboxamide]
CC50 (Cell cytotoxicity CC50): > 25000 nM | pEC50 (RSV A2; [1]): 7.08

CCC1CCCn2nc(-c3ccc(C)nc3)c(C(=O)N[C@H]3N=C(c4ccccc4)c4ccccc4NC3=O)c2O1 (stereo partly drawn) [Example 26, 5-Ethyl-2-(6-methylpyridin-3-yl)-N-[(3S)-2-oxo-5-phenyl-1,3-dihydro-1,4-benzodiazepin-3-yl]-5,6,7,8-tetrahydropyrazolo[5,1-b][1,3]oxazepine-3-carboxamide]
CC50 (Cell cytotoxicity CC50): > 25000 nM | pEC50 (RSV A2; [1]): 6.23

CCC1CCCn2nc(-c3ccc(C)nc3)c(C(=O)N[C@H]3N=C(c4ccccc4)c4cccc(F)c4NC3=O)c2O1 (some centres unmarked) [Example 27, 5-Ethyl-N-[(3 S)-9-fluoro-2-oxo-5-phenyl-1,3-dihydro-1,4-benzodiazepin-3-yl]-2-(6-methylpyridin-3-yl)-5,6,7,8-tetrahydropyrazolo[5,1-b][1,3]oxazepine-3-carboxamide]
CC50 (Cell cytotoxicity CC50): > 25000 nM | pEC50 (RSV A2; [1]): 6.40

CS(=O)(=O)c1ccc(-c2nn3c(c2C(=O)N[C@H]2N=C(c4ccccc4)c4cccc(F)c4NC2=O)OC2CCC3C2)c(F)c1 (stereo partly drawn) [Example 32, 4-(2-Fluoro-4-methylsulfonylphenyl)-N-[(3S)-9-fluoro-2-oxo-5-phenyl-1,3-dihydro-1,4-benzodiazepin-3-yl]-7-oxa-2,3-diazatricyclo[6.2.1.02,6]undeca-3,5-diene-5-carboxamide]
CC50 (Cell cytotoxicity CC50): > 25000 nM | pEC50 (RSV A2; [1]): 7.64
